Literature values as cited in paper PMC6309200 (Journal of Controlled Release, 2018).
Where a SMILES comes first, the peptide text is derived from it.

System: PA-specific CD8+ T cells
Settings: shown previously; ref [15]

## CC(=O)N[C@@H](CCC(N)=O)C(=O)N[C@@H](CCC(N)=O)C(=O)N[C@@H](CCCCN)C(=O)N[C@@H](Cc1ccccc1)C(=O)N[C@@H](CCC(N)=O)C(=O)N[C@@H](Cc1ccccc1)C(=O)N[C@@H](CCC(N)=O)C(=O)N[C@@H](Cc1ccccc1)C(=O)N[C@@H](CCC(=O)O)C(=O)N[C@@H](CCC(N)=O)C(=O)N[C@@H](CCC(N)=O)C(N)=O [Q11] (Ac-QQKFQFQFEQQ-NH2)
  Immunogenicity without attached competent epitopes: non-immunogenic
